Measurements from patent US20230080477A1, “PROCESS OF SYNTHESIS OF NOVEL CHROMIUM (III) COMPLEXES OF SCHIFF BASE LIGANDS AND THEIR USE THERE OF AS THERAPEUTIC AGENTS” (priority 2021, published 2023).

What was measured:
[1] = Eastmond et al., 2008; Katz & salem, 1993; cited from earlier work
[2] = DPPH free radical antioxidant activity assay; assay type: biochemical; settings: dilution 1 ml, wavelength 517 nm; for Inhibition: DPPH assay
Description: Antioxidant activity of the synthesized Cr(III) Schiff base complexes was tested using the free radical compound 2,2-diphenyl-1-picrylhydrazyl(DPPH) (25,26). This compound has a violet color when dissolved in ethanol and a strong absorption maximum centered at around 515-520 nm. DPPH became colorless or pale yellow when neutralized. An aliquot of DPPH (0.3 ml) in ethanol ([…]) was added to ethanol(3 ml), followed by addition of Cr(III) complex dissolve in ethanol (0.5 ml)(total Volume 3.8 ml). A UV/visible spectrophotometer was used to monitor the color change at 517 nm after 100 minutes of reaction. A blank sample contained a mixture of the Cr(III) complex in ethanol (0.5 ml) and ethanol (3.3 ml) (Total Volume 3.8 ml) without any DPPH (no violet color). A control sample contained a solution of DPPH (0.3 ml) and ethanol (3.5 ml) (total volume 3.8 ml) without any Cr (III) complex (Violet color remains). The amount of scavenging activity (%) was determined by the method of Mensor et al. (27).
Finally, the % scavenging activities for Schiff base ligands and derived Cr(III) complexes were calculated by applying the formula
Scavenging activity=(Ac−At)/Ac×100%
Where Ac and At represent the absorbance of the control and test samples, respectively (Choudhary et al., 2011)^28

| SMILES | Acute toxicity range [1] [mg/kg] | Inhibition [2] | DPPH Equivalent Antioxidant activity [2] | Total Antioxidant activity [2] [%] |
| --- | --- | --- | --- | --- |
| [Cr+3] [Cr(III) ion] | 1.5 to 3.3 | – | – | – |
| Cc1ccc(NC(=O)CC(=O)NNc2cc[nH]c2)cc1 [Ligand 1] | – | 0.077 | 1.253 | 65 |
| CC/C=N\NC(=O)CC(=O)Nc1ccc(C)cc1 [Ligand 2, N-[4-methylphenyl)-3-oxo-3[(2Z)-2-propylidene hydrazinyl] propanamide] | – | 0.074 | 1.223 | 66 |
